Data: patent US5476848A, “14B(R) isomers of novel tetracyclic compounds having anti-allergic and anti-asthmatic activities, and their use” (Sankyo Company, Limited, priority 1989, dated 1995)
Counter-ions that a name gives are not always drawn. Values belong to the compound of their own block, whether it stands above or below them.

Assays:
[1] = system: Passive Cutaneous Anaphylaxis (PCA); experiment: Inhibitory effect on passive cutaneous anaphylaxis (PCA) in rats (Test Example 1); type: in vivo, rat (male SD); conditions: Rattus norvegicus, po, read-out: Inhibitory rate
Procedure: (§1) Male SD rats (5 weeks old) were used as the test animals in groups, each containing 4 animals. The rats were sensitized by intradermal injection of 0.05 ml of the diluted antiserum solution in the dorsal position. 48 hours after this injection, a suspension of the test compound in an aqueous 0.5% w/v tragacanth solution was orally administered to the rats, fasted for one day, and 60 minutes later they were injected in the caudal vein with 5 ml/kg body weight of physiological saline containing 0.4% w/v egg albumin and 1.0% w/v Evans Blue.
(§2) The inhibitory rate was calculated by the following equation.
(§3) Inhibitory rate (%)=(1-B/A)×100
(§4) A: amount of exuded dye in the control group
(§5) B: amount of exuded dye in the test group.

[2] = system: Passive Cutaneous Anaphylaxis (PCA); experiment: Inhibitory effect on passive cutaneous anaphylaxis (PCA) in rats (Test Example 1"); type: in vivo, rat (male SD); conditions: Rattus norvegicus, po, read-out: Inhibitory rate; for inhibition at 3.1 mg/kg: 3.1 mg/kg (Table 3"); for inhibition at 0.05 mg/kg: 0.05 mg/kg (Table 3"); for inhibition at 0.2 mg/kg: 0.2 mg/kg (Table 3")
Procedure: as §1, with “48 hours after this injection, a suspension of the test compound in an aqueous 0.5% w/v tragacanth solution was orally administered to the rats, fasted for one day, and” left out, “w/v of” for “w/v”
as §2, §3, §4, §5

pentobarbital anesthesia = experiment: Prolongation of pentobarbital anesthesia (Test Example 3); type: in vivo, guinea pig (male Hartley); conditions: for AD (oral dose which prolonged the pentobarbital-induced anesthesia by 15%, AD15): 1 hr before pentobarbital 30 mg/kg s.c.
Excerpt: Sedation is the side effect with the highest incidence in histamine (H1)-blockers and anti-allergic drugs with an H1 blocking effect (Douglas, W. W. (1980) The Pharmacological Basis of Therapeutis, A. Goodman Gilman, L. S. Goodman, A. Gilman (eds), Macmillian, New York) and therefore anti-allergic drugs which overcome this disadvantage are needed. We investigated the effects of test compounds on pentobarbital anesthesia as a method for measuring incidence of sedation in animals.
Prolongation effects on anesthesia are usually investigated with ethanol or thiopental (in mice and rats). However, we investigated it with pentobarbital in guinea pigs because our data with pentobarbital corresponded well with the clinical data, that is, the incidence of sedation of other anti-allergic drugs in clinical use.
Sodium Pentobarbital (30 mg/kg) was subcutaneously injected into the backs of male Hartley guinea pigs weighing approximately 400 g, and the duration of postural reflex abolition was then measured.
Test compounds were administered orally 1 hr before the pentobarbital injection. The prolongation rate obtained with the test compound was calculated by comparison to the control (the duration of pentobarbital anesthesia in animals untreated with the test compounds). In addition, the AD15 value (the oral dose which prolonged the pentobarbital-induced anesthesia by 15%) was determined, and the results are shown in the table.

[3] = system: Antigen-induced Bronchoconstriction; experiment: Effect on antigen-induced bronchoconstriction in sensitized guinea pigs (Test Example 2"); type: in vivo, guinea pig (male Hartley); conditions: Cavia porcellus, po, read-out: Inhibitory rate; for inhibition at 0.025 mg/kg: 0.025 mg/kg (Table 4"); for inhibition at 0.1 mg/kg: 0.1 mg/kg (Table 4")
Procedure: (§6) The test animals used were male guinea pigs of the Hartley strain (weighing about 400 to 500 g). These animals were sensitized according to Morris' method [H. R. Morris; Br. J. Pharmac., 67, 179-184 (1979)]. The guinea pigs were injected twice subcutaneously and intraperitoneally, each time with 25 mg of egg albumin (grade 5, Sigma) at weekly intervals. 7 days after the second of these weekly injections, the animals were fasted for one day and then exposed to an aerosol of egg albumin (10 mg/ml). All of the animals so exposed responded with convulsions, indicating respiratory distress due to airway constriction, within 6 minutes.
60 minutes before the egg albumin challenge, one of the test compounds shown in the following Table 4" was administered orally to each of the animals.

[4] = system: Antigen-induced Bronchoconstriction; experiment: Effect on antigen-induced bronchoconstriction in sensitized guinea pigs (Test Example 2); type: in vivo, guinea pig (male Hartley); conditions: Cavia porcellus, po, 60 min before challenge, read-out: Inhibitory rate
Procedure: as §6, with “were” for “were injected twice”, “intraperitoneally injected twice,” for “intraperitoneally,”
60 minutes before the egg albumin challenge, one of the test compounds shown in the following Table 5 was administered orally to each of the animals.

eosinophil accumulation = experiment: Inhibitory effect on antigen induced eosinophil accumulation (Test Example 4); type: in vivo, guinea pig (male Hartley); conditions: Cavia porcellus, Eosinophil, po, 1 hr before antigen challenge, BALF 24 hr after;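 further: oral dose 0.1 mg/kg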
Procedure: Male Hartley guinea pigs weighing approximately 400 g were sensitized with ovalbumin by the method described by Engineer et al. (Engineer, D. M. et al., J. Pharmacol., 62, 61-66 (1978)), and the number of eosinophils infiltrating into the bronchoalveolar space due to antigen challenge was examined.
Briefly, the animals were exposed to the antigen (ovalbumin) for 6 min. At 24 hr. after antigen challenge, the guinea pigs were anesthetized with pentobarbital (30 mg/kg, i.p.). The trachea was cannulated by a disposable intravenous catheter, and the airway lumen (especially in the right posterior lobe) was washed with 0.9% saline (10 ml/kg) kept at 37° C. The bronchoalveolar lavage fluid (BALF) from each animal was centrifuged (150 g for 10 min at 4° C.). After removing the supernatant, the cell pellet was resuspended in HBSS (Hank's balanced solution) and a total cell count was performed using a standard hemocytometer. Differential cell counts were done on smears fixed in methanol and stained with Wright-Giemsa solution, and by light microscopy under oil immersion (×1000). The proportion of eosinophil population was expressed as a percentage of total cells, and this ratio together with the total cell count was used to calculate the total number of eosinophils. The percent inhibition of the test compounds which was administered 1 hr before antigen challenge, was calculated as follows:
Percent inhibition=[1-(C-A)/(B-A)]×100
A: negative control: mean value of cell counts in BALF from the animals with inhaled saline
B: positive control: mean value of cell counts in BALF from the animals 24 h after antigen challenge
C: cell counts of BALF for the animals pretreated with a test compound 24 h after antigen challenge

eosinophil chemotaxis = experiment: Inhibitory effect of eosinophil chemotaxis to zymosan-activated serum (Test Example 4); type: cell-based, guinea pig; conditions: Cavia porcellus, Eosinophil, 0.1 μg/ml; ZAS
Excerpt: Eosinophils were harvested from the peritoneal cavity of polymyxin B-treated guinea pigs (body weight, approx. 400 g) according to the method described by Pincus (Pincus, S. H. et al.: Blood, 52, 127-134 (1978)). The eosinophils were separated and purified by Ficoll-paque (Pharmacia) density gradient centrifugation. Then, the eosinophil chemotaxis to zymosan-activated serum (ZAS) was investigated by a modification of the Boyden micropore filter technique (Gosset, P. et al.: Clin. Exp. Immunol., 65, 654-663 (1986)). Briefly, the assay was carried out in a 48-well microchemotaxis assembly (Neuroprobe; Cabin John, Md., U.S.A.). Cell suspensions were adjusted to 2.5×10^5 /50 μl, and placed in the upper chamber separated from the chemoattractant (ZAS) solution in the lower chamber by a 3 μm pore size polycarbonate membrane filter (Nucleopore Co., Pleasanton, U.S.A.). The cells were incubated for 10 min at 37° C. with the test compounds, prior to their addition to the chemotaxis chamber. Migration was carried out at 37° C. in humidified air with 5% CO2 for 2 h. After the incubation, the migrated eosinophils in the lower Chamber were counted by a hemocytometer.
The percentage inhibition obtained with the test compound was calculated by comparison to the positive control (migration of non-treated cells in response to the ZAS), according to the formula:
Percent inhibition=[1-(A/B)]×100
A: (migration with a test compound)-(spontaneous migration)
B: (positive control migration)-(spontaneous migration)

Compound: NC(=O)CCN1CCN2c3ccccc3Cc3ccccc3C2C1 (stereo not drawn) [Prior art compound F, 2-(2-carboxamidoethyl)-1,2,3,4,10,14b-hexahydrodibenzo[c,f]pyrazino[1,2-a]azepine, reference compound]
- inhibition at 3.1 mg/kg [1]: 52%
- inhibition at 3.1 mg/kg [2]: 52%

- AD (oral dose which prolonged the pentobarbital-induced anesthesia by 15%, AD15) (pentobarbital anesthesia; po, guinea pigs): 123 mg/kg
- amount of R-isomer required as compared with the racemate for the same prolongation time (pentobarbital anesthesia; ratio to racemate, po, guinea pigs): about double
Compound: O=C(O)CCCN1CCN2c3ccccc3Cc3ccccc3[C@@H]2C1 [22 R-isomer]
- prolongation of anesthesia side effect (pentobarbital anesthesia; in words): extremely low

Compound: OCCN1CCN2c3ccccc3Cn3cccc3C2C1 (stereo not drawn) [Prior art compound D, 2-(2-hydroxyethyl)-1,3,4,14b-tetrahydro-2H, 10H-pyrazino[1,2-a]pyrrolo[2,1-c][1,4]benzodiazepine, reference compound]
- inhibition at 3.1 mg/kg [1]: 30%
- inhibition at 3.1 mg/kg [2]: 30%

Compound: O=C(O)CCCN1CCN2c3ccccc3Cn3cccc3[C@H]2C1 [3"]
- inhibition at 0.05 mg/kg [2]: 66%
- inhibition at 0.2 mg/kg [2]: 72%
- inhibition at 0.025 mg/kg [3]: 60%
- inhibition at 0.1 mg/kg [3]: 100%

Compound: NC(=O)COCCN1CCN2c3ccccc3Cc3ccccc3C2C1 (stereo not drawn) [Example 26, 2-(1,2,3,4,10,14b-Hexahydrodibenzo[c,f]pyrazino[1,2-a]azepin-2-yl)ethoxyacetamide]
- inhibition at 0.05 mg/kg [1]: 44%
- inhibition at 0.2 mg/kg [1]: 63%
- inhibition at 0.4 mg/kg [4]: 80%

Compound: O=C(O)COCCN1CCN2c3ccccc3Cc3ccccc3[C@H]2C1 [Example 59, (S)-2-(1,2,3,4,10,14b-Hexahydrodibenzo[c,f]pyrazino[1,2-a]azepin-2-yl)ethoxyacetic Acid]
- inhibition at 0.05 mg/kg [1]: 59%
- inhibition at 0.2 mg/kg [1]: 74%
- inhibition at 0.05 mg/kg ([4]; 0.05 mg/kg): 60%

- AD (oral dose which prolonged the pentobarbital-induced anesthesia by 15%, AD15) (pentobarbital anesthesia; po, guinea pigs): 75 mg/kg
Compound: O=C(O)CCCN1CCN2c3ccccc3Cc3ccccc3[C@H]2C1 [22 S-isomer]

Compound: CCOC(=O)CCCN1CCN2c3ccccc3Cc3ccccc3C2C1 (racemic) [Example 19, Ethyl 4-(1,2,3,4,10,14b-hexahydrodibenzo[c,f]pyrazino[1,2-a]azepin-2-yl)butanoate]
- inhibition at 0.05 mg/kg [1]: 55%
- inhibition at 0.2 mg/kg [1]: 61%
- inhibition at 0.025 mg/kg ([4]; 0.025 mg/kg): 40%
- inhibition at 0.4 mg/kg [4]: 100%

- AD (oral dose which prolonged the pentobarbital-induced anesthesia by 15%, AD15) (pentobarbital anesthesia; po, guinea pigs): 59 mg/kg
Compound: O=C(O)CCCN1CCN2c3ccccc3Cc3ccccc3C2C1 (racemic) [Example 22, 4-(1,2,3,4,10,14b-Hexahydrodibenzo[c,f]pyrazino[1,2-a]azepin-2-yl)butanoic acid]

Compound: O=C(O)CCCN1CCN2c3ccccc3Cc3ccccc3[C@@H]2C1 [22 HCl R-isomer]
- inhibition at 0.1 mg/kg (eosinophil accumulation): 59%
- inhibition at 0.1 µg/mL (eosinophil chemotaxis): 53%
- inhibition at 0.05 mg/kg [2]: 55%
- inhibition at 0.2 mg/kg [2]: 67%
- inhibition at 0.025 mg/kg [3]: 40%
- inhibition at 0.1 mg/kg [3]: 80%
- inhibition at 0.4 mg/kg ([3]; 0.4 mg/kg (Table 4")): 100%
